Experimental data from patent US20240366637A1, “Compounds inhibiting the synergistic carsinogenic effect of heavy metals in the presence of other carcinogens for use in the treatment of cancer” (priority 2021, published 2024).

Columns and labels:
[1] = tested on: Salmonella typhimurium TA1535; conditions: cadmium chloride 0.5 mM as pro-mutagen, N-Methyl-N-nitrosourea 180 μM as mutagen, candidate in various concentrations; mutant revertants on solid media
Method: The operating hypothesis was tested with an AMES test (as described e.g. by Mandel and Ryser, 1984) based platform using Salmonella typhimurium TA1535 (Standard Ames Tester Strain), cadmium chloride as pro-mutagen (0.5 mM final concentration during treatment), N-Methyl-N-nitrosourea as mutagen (180 μM final concentration during treatment) and EDTA, phytic acid (IP6) and Unithiol (i.e. DMPS) as candidate cadmium-promoted mutagenicity antidotes (in various concentrations, see FIGS. 1 and 2).
The experiment included the following steps: • 1. Healthy growth of bacterial cells • 2. Absorption of cadmium chloride (as a non-genotoxic metabolic poison) under conditions of reduced metabolism (bacteria chilled on ice) • 3. Addition of candidate antidotes and metabolic activation (fresh growth medium, 37° C.) • 4. Addition of N-methyl-N-nitrosourea under metabolically active conditions to fix mutations (fresh growth medium, 37° C.) • 5. Screening for mutant revertants on solid media (standard, second generation Petri dish-based AMES test)

Salmonella typhimurium = conditions: synergistic with two nitrosoamines; cited from earlier work

Structure (SMILES)	inhibition of mutagenicity-promoting synergy between cadmium and N-methyl-N-nitrosourea [1]	increase of the mutagenicity of two common nitrosoamines, greater than expected from simple additivity (Salmonella typhimurium)
O=C(O)CN(CCN(CC(=O)O)CC(=O)O)CC(=O)O [EDTA]	did not inhibit	
O=S(=O)(O)CC(S)CS (stereo not shown) [Unithiol, 2,3-Dimercapto-1-propanesulfonic acid]	dose-dependent inhibition	
O=P(O)(O)O[C@H]1[C@H](OP(=O)(O)O)[C@@H](OP(=O)(O)O)[C@H](OP(=O)(O)O)[C@@H](OP(=O)(O)O)[C@H]1OP(=O)(O)O [phytic acid]	dose-dependent inhibition	
[Cl][Cd][Cl] [cadmium chloride]		up to 30 fold
